Consider three compounds from ChEMBL document CHEMBL1158817, “Hyrtioerectines A-C, cytotoxic alkaloids from the red sea sponge hyrtioserectus” (J Nat Prod, 2005).

Converted amounts (≈) assume the structure as drawn.

As a reminder, the IC50 is the concentration at which inhibition is half-maximal.

The subject of this assay is HeLa. Nature of the assay: Cytotoxicity against human HeLa cells by Fukuzawa's method. Type of assay: functional, cell-based.
For `O=C(O)[C@H](O)Cc1c[nH]c2ccc(O)cc12` [HYRTIOERECTINE C], half-maximal inhibition (IC50) was put at 4.5 µg/mL (≈ 20.3 µM).
`C[C@H]1N[C@@H](C(=O)O)Cc2c1[nH]c1ccc(O)cc21` [HYRTIOERECTINE B] returned a 50% inhibitory concentration (IC50) of 5 µg/mL (≈ 20.3 µM).
To `O=C(O)C(=O)c1c(-c2c[nH]c3cc(O)ccc23)ncc2[nH]c3ccc(O)cc3c12` [HYRTIOERECTINE A] belongs 10 µg/mL (≈ 25.8 µM).
